Patent publication US20070196484A1, “Poorly water-soluble drug-containing solid formulation” (priority 2004, published 2007)
Converted amounts (≈) assume the structure as drawn.

Experiments:
[1] = Solubility of bisacodyl in the co-existence of dioctyl sodium sulfosuccinate; assay type: physicochemical; conditions: for solubility at 5 h: thermodynamic from solid
Experimental: Variation in solubility of bisacodyl was studied in the co-existence of bisacodyl and dioctyl sodium sulfosuccinate. Bisacodyl was dispersed in purified water and the dispersion was shaken under given conditions for 5 hours. The resulting liquid was centrifuged at 3000 min^−1 for 5 min. Then, the supernatant was collected and the amount of dissolved bisacodyl was determined by HPLC. In a similar manner, bisacodyl was dispersed in solutions containing dioctyl sodium sulfosuccinate at 0.07%, 0.14% and 0.35%. Each dispersion was shaken and centrifuged at 3000 min^−1 for 5 min. Then, the supernatant was collected and the amount of dissolved bisacodyl was determined by HPLC.

SD male rats [2] = experiment: Oral administration test, onset of catharsis; assay type: in vivo, rat; conditions: bisacodyl 2 mg/kg, DSS 3.2 mg/kg, observed 24 hours, FIG. 3
Experimental: (§1) SD male rats were used in 10 animals per group. Test substances used were bisacodyl alone (2 mg/kg), DSS alone (3.2 mg/kg) and bisacodyl (2 mg/kg)+DSS (3.2 mg/kg).

SD male rats [3] = experiment: Intra-ileal administration test, onset of catharsis; assay type: in vivo, rat; conditions: bisacodyl 2 mg/kg, DSS 3.2 mg/kg, observed 24 hours, FIG. 3
Experimental: as §1
A rat underwent laparotomy under ether anesthesia and a test substance was injected via a syringe into an ileum at 20 cm to the mouth from the ileocecum at a dose of 1 mL/kg rat weight.

Row | SMILES | solubility at 5 h ([1]; 0.07% dioctyl sodium sulfosuccinate aqueous solution, aqueous with cosolvent or surfactant or cyclodextrin, Sample 1: 0.07% DSS aq.) [µg/mL] | solubility at 5 h ([1]; 0.14% dioctyl sodium sulfosuccinate aqueous solution, aqueous with cosolvent or surfactant or cyclodextrin, Sample 2: 0.14% DSS aq.) [µg/mL] | solubility at 5 h ([1]; 0.35% dioctyl sodium sulfosuccinate aqueous solution, aqueous with cosolvent or surfactant or cyclodextrin, Sample 3: 0.35% DSS aq.) [µg/mL] | Proportion to control (solubility of bisacodyl) ([1]; Sample 1: 0.07% DSS aq.) [%] | Proportion to control (solubility of bisacodyl) ([1]; Sample 2: 0.14% DSS aq.) [%] | Proportion to control (solubility of bisacodyl) ([1]; Sample 3: 0.35% DSS aq.) [%] | solubility at 5 h ([1]; Control: purified water, 0% DSS, shaken 5 hours) [µg/mL] | Cathartic effect (catharsis incidence) (SD male rats [2]) | Cathartic effect (catharsis incidence) (SD male rats [3])
1 | CC(=O)Oc1ccc(C(c2ccc(OC(C)=O)cc2)c2ccccn2)cc1 [Bisacodyl] | 3.62 (≈ 10 µM) | 4.51 (≈ 12.5 µM) | 12.7 (≈ 35.1 µM) | 191.5 | 238.6 | 672.0 | 1.89 (≈ 5.23 µM) | – | –
2 | CCCCC(CC)COC(=O)CC(C(=O)OCC(CC)CCCC)S(=O)(=O)[O-].[Na+] (stereo not drawn) [DSS, Dioctyl sodium sulfosuccinate] | – | – | – | – | – | – | – | cathartic effect was not observed | cathartic effect was not observed
